Laboratory results as given in patent US7186836B2 (priority 2002, dated 2007).

Target: α7 nAChR subtype (Rattus norvegicus, UniProt Q05941)
Type: binding
Conditions: read-out: KD of radioligand (saturation curves, one site model)

Sequence of α7 nAChR subtype (Q05941 23-502 limits assumed): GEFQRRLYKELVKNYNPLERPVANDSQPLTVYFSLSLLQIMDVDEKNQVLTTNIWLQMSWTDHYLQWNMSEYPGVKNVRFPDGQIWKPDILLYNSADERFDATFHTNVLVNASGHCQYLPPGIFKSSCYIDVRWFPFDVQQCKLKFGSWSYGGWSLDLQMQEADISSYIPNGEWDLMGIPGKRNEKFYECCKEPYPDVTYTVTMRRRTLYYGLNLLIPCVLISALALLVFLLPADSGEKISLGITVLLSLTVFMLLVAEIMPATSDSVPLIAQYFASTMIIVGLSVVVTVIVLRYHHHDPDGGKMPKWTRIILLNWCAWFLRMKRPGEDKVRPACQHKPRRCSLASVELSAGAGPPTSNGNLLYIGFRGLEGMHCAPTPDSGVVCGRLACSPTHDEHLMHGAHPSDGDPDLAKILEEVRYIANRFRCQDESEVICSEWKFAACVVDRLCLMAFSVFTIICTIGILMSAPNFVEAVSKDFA

[^125I]-α-Bungarotoxin [[^125I]-α-BTX]
Kd: 1.67 nM
